Paper PMC4901392 (Cell host & microbe, 2016)

Experiments:
ZigA = details: read-out: apparent Km; Zn-bound ZigA (2 µM), 2 mM MgCl2, 150 mM NaCl, 20 mM Tris-HCl pH 8.0
[1] = target: ZigA (Zur-induced GTPase A) (A. baumannii); assay: SEC

stoichiometry N [1]	Molecule	Km (ZigA) [µM]
–	Nc1nc2c(ncn2[C@@H]2O[C@H](COP(=O)(O)OP(=O)(O)OP(=O)(O)O)[C@@H](O)[C@H]2O)c(=O)[nH]1 [GTP]	150
2	ZigA (Zur-induced GTPase A) (enzyme)	–
